Assays:
[1] = system: human myeloid leukemia cell line THP1; test: Cell proliferation test (Cell Titer-Glo), THP1; format: cell-based; settings: THP1 cells, cytarabine alone
Protocol: (§1) The cell proliferation test was performed using human myeloid leukemia cell line U-937 (ATCC, CRL-1593.2), MOLM-13 (DSMZ, ACC 554), HL60 (ATCC, CRL-240), SKM-1 (JCRB cell bank, JCRB0118), OCI-M2 (DSMZ, ACC 619), NOMO-1 (JCRB cell bank, IFO050474), MV4-11 (ATCC, CRL-9591), THP1 (ATCC, TIB-202), and human peripheral blood mononuclear cell PBMC (CTL, CTL-UP-1). As the culture medium of U-937 cells, MOLM-13 cells, HL60 cells, SKM-1 cells, OCI-M2 cells, NOMO-1 cells, MV4-11 cells, and THP1 cells, RPMI1640 (FUJIFILM Wako Pure Chemical Corporation, 189-02025) added with 10% fetal bovine serum (Thermo Fisher Scientific, Inc., 10437-028) and 1% penicillin-streptomycin (10,000 U/mL, Thermo Fisher Scientific, Inc., 15140-122) was used. […] After culturing overnight, 5 μL of FLA3527, ASLAN003, BAY2402234, or cytarabine (Ara-C, C2035, Tokyo Chemical Industry Co., Ltd.) at the predetermined concentration was added, and 3 days later, 25 μL of Cell Titer-Glo (registered trade mark) luminescent cell viability assay (Promega Corporation, G7573) was added, and the light emission amount was measured using an Envision plate reader (PerkinElmer, Inc.). […] The proliferation inhibition concentration for each compound concentration was calculated by the following expression. […]
(§2) The CI indicating the combined effect of Ara-C and the DHODH inhibitor compound was calculated using the software CalcuSyn of Biosoft.

[2] = system: human myeloid leukemia cell line MV4-11; test: Cell proliferation test (Cell Titer-Glo), MV4-11; format: cell-based; settings: MV4-11 cells, Ara-C alone
Protocol: as §1, §2

## Nc1ccn([C@@H]2O[C@H](CO)[C@@H](O)[C@@H]2O)c(=O)n1 [Ara-C, cytarabine]
[1]
  cytarabine sensitivity of the cell line: insensitive
[2]
  Ara-C sensitivity of the cell line: sensitive
